Results on five compounds are retold here after US10759797B2, “Pharmaceutically acceptable salt of EGFR inhibitor, crystal form thereof, preparation method therefor and application thereof” (Wuxi Shuangliang Biotechnology Co., Ltd., priority 2017, dated 2020).

Holding throughout (format): physicochemical
Series [1] in a line: Hygroscopicity study of crystal forms (Chinese Pharmacopoeia 2015, part 4, appendix 9103). The conditions noted are these: for Hygroscopicity as compared with that of the EGFR inhibitor present in a free base form: 25° C./RH 80%; for Weight gain over 6 hours (%) / Weight gain over 24 hours (%) / Hygroscopicity: 25° C.±1° C., relative humidity 80%±2%; for Hygroscopicity: Pharmacopoeia class. As to the method: Hygroscopicity comparison study was carried out for various pharmaceutically acceptable salts of EGFR inhibitor present in the form of crystal in Examples 1 to 3 and 5 to 6, the amorphous EGFR inhibitor phosphate salt in Example 4, and the EGFR inhibitor present in a free base form. Tests were conducted according to the method in the Pharmacopoeia of the People's Republic of China, 2015 edition, part 4, appendix 9103 (temperature: 25° C.±1° C., relative humidity: 80%±2%), and the results were as shown in Table 6.
With regard to the description of hygroscopic properties and definition of hygroscopic weight gain, refer to the Pharmacopoeia of the People's Republic of China, 2015 edition, part 4, appendix 9103, experimental guideline of drug hygroscopicity, herein descried by way of example as follows.
Deliquescence: absorb enough water to form a liquid.
Very hygroscopic: hygroscopic weight gain […] 15%.
Hygroscopic: hygroscopic weight gain less than 15% but not less than 2%.
Non- or almost non-hygroscopic: hygroscopic weight gain less than 0.2%.

The nature of series [2]: Solubility study in water (saturated solutions, HPLC linear equation; Pharmacopoeia and BCS classification). The conditions noted are these: for BCS level (Do): Do=(Mo/Vo)/Cs, Mo 80 mg, Vo about 250 ml, Do≤1 solubility high, Do>1 low; for Solubility in water, 1 h / Solubility in water, 4 h / Solubility in water, 24 h: saturated solution; for Solubility in water, 1 h: standing 1 hour; for Solubility in water, 4 h: standing 4 hours; for Solubility in water, 24 h: standing 24 hours. The text has this: (§1) Various pharmaceutically acceptable salts of EGFR inhibitor present in form of crystal in Examples 1 to 3 and 5 to 6 were classified with reference to the relevant requirements of the Pharmacopoeia of the People's Republic of China and the Bio-pharmaceutics Classification System (BCS).
(§2) (a) Relevant Requirements of Solubility in the Pharmacopoeia of the People's Republic of China, 2015 Edition, General Notices:
(§3) (b) Relevant Requirements of Solubility in BCS: Do=(Mo/Vo)/Cs;
(§4) wherein Do: dose index; Mo: highest single dose of the drug (with reference to the relevant dose of osimertinib, tentatively set to 80 mg); Vo: the volume of body fluid required for dissolving the drug (about 250 ml); Cs: saturated solubility of the drug;
(§5) if Do≤1, solubility is high; and if Do>1, solubility is low.
(§6) Using an EGFR inhibitor free base as a control, linear regression was carried out by plotting peak area versus concentration, and the corresponding linear equation was obtained in the range of 0.025 to 1.5 mg/ml: A=19775.0411c+2.4256, r=1.0000.
Water was used as solvent. An appropriate amount of the EGFR inhibitor mesylate salt, p-toluenesulfonate salt, phosphate salt, hydrochloride salt and citrate salt prepared in Examples 1 to 3 and 5 to 6 was weighed, and prepared into saturated solutions. Samples were taken after standing for 1 hour, 4 hours, and 24 hours, respectively, and the concentration of each sample in saturation state was calculated according to the linear equation.

Series [3] is described as follows: Solubility study in artificial gastric fluid (saturated solutions, HPLC linear equation; Pharmacopoeia and BCS classification). The conditions noted are these: for Pharmacopoeia of the People's Republic of China Solubility level / Solubility in artificial gastric fluid, 1 h / Solubility in artificial gastric fluid, 4 h / Solubility in artificial gastric fluid, 24 h / BCS level (Do): artificial gastric fluid; for Solubility in artificial gastric fluid compared with water: artificial gastric fluid versus water; for Solubility in artificial gastric fluid, 1 h / Solubility in artificial gastric fluid, 4 h / Solubility in artificial gastric fluid, 24 h: saturated solution; for Solubility in artificial gastric fluid, 1 h: standing 1 hour; for Solubility in artificial gastric fluid, 4 h: standing 4 hours; for Solubility in artificial gastric fluid, 24 h: standing 24 hours; for BCS level (Do): Do=(Mo/Vo)/Cs, Mo 80 mg, Vo about 250 ml, Do≤1 solubility high, Do>1 low; for Degradation in the solubility study: water and artificial gastric fluid, up to 24 hours.
Text: as §1, §2, §3, §4, §5, §6
Artificial gastric fluid was used as solvent. An appropriate amount of the EGFR inhibitor mesylate salt (crystal form A), p-toluenesulfonate salt (crystal form B), phosphate salt (crystal form C), phosphate salt (amorphous), hydrochloride salt (crystal form C), and citrate salt (crystal form E) prepared in Examples 1 to 6 was weighed, and prepared into saturated solutions. Samples were taken after standing for 1 hour, 4 hours, and 24 hours, respectively, and the concentration of each sample in saturation state was calculated according to the linear equation.

Series [4] in a line: One month accelerated stability study at 40° C./75% RH (shape, purity, XRPD). To be noted: for Appearance, 1 month / Purity (%), 1 month / XRPD pattern (0 month versus 1 month): after 1 month at 40° C./75% RH; for Appearance, 0 month / Purity (%), 0 month: start of study (0 month). As to the method: The six pharmaceutically acceptable salts of EGFR inhibitor in Examples 1 to 6 were placed in a condition of 40° C./75% RH, and a one month accelerated stability study was carried out. Samples were taken at the end of 0 and 1 month respectively, and emphasis was placed upon the shape, purity and crystal form stability (XRPD pattern) of the samples.
Stable refers to no occurrence of degradation and no detection of transformation to other crystal forms by analytical means such as chromatography and XRPD.

Series [5] in a line: Solubility study in water (saturated solutions, HPLC linear equation; Pharmacopoeia and BCS classification). To be noted: in water and artificial gastric fluid.
Setting [6] is: listed as hydrochloride salt (crystal form D).
The mark [7] stands for this setting: listed as p-toluenesulfonate salt (crystal form B).

Molecules are shown by their SMILES. ≈ marks a conversion by molar mass, not a printed value. Where a name gives a salt, the structure may show the parent alone.

`C=CC(=O)Nc1cc(Nc2nccc(-c3cn(C)c4cccnc34)n2)c(OC)cc1N(C)CCN(C)C` [phosphate salt (crystal form C)]: in series [1], the “Hygroscopicity as compared with that of the EGFR inhibitor present in a free base form” value is recorded as “higher hygroscopicity”, the “Weight gain over 6 hours (%)” value is reported as 9.15%, the “Weight gain over 24 hours (%)” value was determined as 11.98% and the Hygroscopicity entry was “hygroscopic”. Besides, in series [2], the “Pharmacopoeia of the People's Republic of China Solubility level” value (“Pharmacopoeia … of China Solubility level” below) is recorded as “freely soluble”; the “BCS level (Do)” value is given as 0.0023 < 1; the “Solubility in water, 1 h” value stood at 107.15 mg/mL; the “Solubility in water, 4 h” value was 133.32 mg/mL. Also, the “Solubility in water, 24 h” value in series [2] worked out at 137.13 mg/mL. Besides, in series [3], the “Pharmacopoeia … of China Solubility level” value is given as “freely soluble”; the “Solubility in artificial gastric fluid compared with water” value (shortened to “Solubility … compared with water”) was “higher solubility in artificial gastric fluid than in water”; the “Solubility in artificial gastric fluid, 1 h” value is 156.70 mg/mL; the “Solubility in artificial gastric fluid, 4 h” value is 159.14 mg/mL. In series [3], the “Solubility in artificial gastric fluid, 24 h” value is 147.08 mg/mL; the “BCS level (Do)” value is reported as 0.0022 < 1; the “Degradation in the solubility study” value is recorded as “no significant degradation”. Moreover, in series [4], the “Appearance, 1 month” value is on record as “tan solid”; the “Purity (%), 1 month” value was 98.5%; the “XRPD pattern (0 month versus 1 month)” value is “consistent”; the “Appearance, 0 month” value is “tan solid”. Moreover, the “Purity (%), 0 month” value in series [4] is recorded as 98.5%. Further, the “Solubility with reference to Pharmacopoeia solubility classification” value in series [5] is listed as “high”.

With `C=CC(=O)Nc1cc(Nc2nccc(-c3cn(C)c4cccnc34)n2)c(OC)cc1N(C)CCN(C)C` [free base], in series [1], the “Weight gain over 6 hours (%)” value is on record as 1.7%, the “Weight gain over 24 hours (%)” value turned out to be 2.2% and the Hygroscopicity result was “hygroscopic”. Also, in series [2], the “BCS level (Do)” value is on record as 606.30 > 1; the “Solubility in water, 1 h” value was under 0.025 mg/mL; the “Solubility in water, 4 h” value was under 0.025 mg/mL; the “Solubility in water, 24 h” value is under 0.025 mg/mL. In series [3], the “Solubility … compared with water” value was “higher solubility in artificial gastric fluid than in water”; the “Solubility in artificial gastric fluid, 1 h” value was found to be 0.84 mg/mL (≈ 1680 µM); the “Solubility in artificial gastric fluid, 4 h” value amounted to 0.86 mg/mL (≈ 1720 µM); the “Solubility in artificial gastric fluid, 24 h” value was determined as 0.71 mg/mL (≈ 1420 µM). Further, in series [3], the “BCS level (Do)” value is 0.4515 < 1 and the “Degradation in the solubility study” value is reported as “no significant degradation”.

For `C=CC(=O)Nc1cc(Nc2nccc(-c3cn(C)c4cccnc34)n2)c(OC)cc1N(C)CCN(C)C` [hydrochloride salt], the “Hygroscopicity as compared with that of the EGFR inhibitor present in a free base form” value in series [1] (listed as hydrochloride salt crystal form D) is listed as “lower hygroscopicity”. In addition, in series [1], the “Weight gain over 6 hours (%)” value is on record as 0.72%, the “Weight gain over 24 hours (%)” value is on record as 1.29% and the Hygroscopicity result is recorded as “slightly hygroscopic”. Besides, in series [2], the “Pharmacopoeia … of China Solubility level” value is “sparingly soluble”; the “BCS level (Do)” value is given as 0.0302 < 1; the “Solubility in water, 1 h” value stood at 13.43 mg/mL; the “Solubility in water, 4 h” value was found to be 11.09 mg/mL. Further, the “Solubility in water, 24 h” value in series [2] is 10.59 mg/mL. Moreover, in series [3], the “Pharmacopoeia … of China Solubility level” value is listed as “soluble”; the “Solubility … compared with water” value was “higher solubility in artificial gastric fluid than in water”; the “Solubility in artificial gastric fluid, 1 h” value turned out to be 83.79 mg/mL; the “Solubility in artificial gastric fluid, 4 h” value is 79.18 mg/mL. In series [3], the “Solubility in artificial gastric fluid, 24 h” value is 70.03 mg/mL; the “BCS level (Do)” value was 0.0046 < 1; the “Degradation in the solubility study” value is “no significant degradation”. In addition, in series [4], the “XRPD pattern (0 month versus 1 month)” value is “consistent”. Further, in series [4] (setting [6]), the “Appearance, 1 month” value is recorded as “tan solid”; the “Purity (%), 1 month” value was 99.3%; the “Appearance, 0 month” value is given as “tan solid”; the “Purity (%), 0 month” value was found to be 99.2%.

Consider `C=CC(=O)Nc1cc(Nc2nccc(-c3cn(C)c4cccnc34)n2)c(OC)cc1N(C)CCN(C)C` [phosphate salt (amorphous)], for which the “Hygroscopicity as compared with that of the EGFR inhibitor present in a free base form” value in series [1] (listed as amorphous phosphate salt) was “lower hygroscopicity”. In addition, in series [1], the “Weight gain over 6 hours (%)” value is given as 1.2%, the “Weight gain over 24 hours (%)” value is reported as 1.5% and the Hygroscopicity entry is “slightly hygroscopic”. Also, in series [2], the “Pharmacopoeia … of China Solubility level” value is “freely soluble”; the “BCS level (Do)” value is listed as 0.0034 < 1; the “Solubility in water, 1 h” value was determined as 88.32 mg/mL; the “Solubility in water, 4 h” value amounted to 92.14 mg/mL. The “Solubility in water, 24 h” value in series [2] was 94.56 mg/mL. In series [3], the “Pharmacopoeia … of China Solubility level” value is “freely soluble”; the “Solubility … compared with water” value is given as “higher solubility in artificial gastric fluid than in water”; the “Solubility in artificial gastric fluid, 1 h” value was determined as 123.56 mg/mL; the “Solubility in artificial gastric fluid, 4 h” value came to 136.76 mg/mL. In addition, in series [3], the “Solubility in artificial gastric fluid, 24 h” value is 138.91 mg/mL; the “BCS level (Do)” value is reported as 0.0023 < 1; the “Degradation in the solubility study” value is “no significant degradation”. In series [4], the “Appearance, 1 month” value is listed as “light grey solid”; the “Purity (%), 1 month” value was determined as 98.7%; the “XRPD pattern (0 month versus 1 month)” value was “consistent”; the “Appearance, 0 month” value is “light grey solid”. Moreover, in series [4], the “Purity (%), 0 month” value was 98.9%. The “Solubility with reference to Pharmacopoeia solubility classification” value in series [5] is listed as “high”.

For the compound `C=CC(=O)Nc1cc(Nc2nccc(-c3cn(C)c4cccnc34)n2)c(OC)cc1N(C)CCN(C)C` [p-toluenesulfonate salt], in series [1] (listed as p-toluenesulfonate salt crystal form B), the “Hygroscopicity as compared with that of the EGFR inhibitor present in a free base form” value is recorded as “lower hygroscopicity”. For the same compound, in series [1], the “Weight gain over 6 hours (%)” value came out at 0.04% and the “Weight gain over 24 hours (%)” value is 0.04%. Further, in series [2], the “Pharmacopoeia … of China Solubility level” value is given as “slightly soluble”; the “BCS level (Do)” value is 0.2057 < 1; the “Solubility in water, 1 h” value stood at 1.82 mg/mL; the “Solubility in water, 4 h” value was 1.78 mg/mL. The “Solubility in water, 24 h” value in series [2] is 1.56 mg/mL. Moreover, in series [3], the “Pharmacopoeia … of China Solubility level” value is “soluble”; the “Solubility … compared with water” value is recorded as “higher solubility in artificial gastric fluid than in water”; the “Solubility in artificial gastric fluid, 1 h” value is 46.21 mg/mL; the “Solubility in artificial gastric fluid, 4 h” value was 46.75 mg/mL. Also, in series [3], the “Solubility in artificial gastric fluid, 24 h” value was 47.03 mg/mL; the “BCS level (Do)” value is on record as 0.0068 < 1; the “Degradation in the solubility study” value is recorded as “no significant degradation”. Also, the “XRPD pattern (0 month versus 1 month)” value in series [4] is on record as “consistent”. Moreover, in series [4] (setting [7]), the “Appearance, 1 month” value is given as “light tan solid”; the “Purity (%), 1 month” value was determined as 98.7%; the “Appearance, 0 month” value is recorded as “light tan solid”; the “Purity (%), 0 month” value was determined as 98.7%.
